# According to US7547806B2, “Tannate salt of rasagiline” (Teva Pharmaceutical Industries, Ltd., priority 2006, dated 2009):
# What was measured:
# Format in all cases: physicochemical
# [1] = Water content by thermal gravimetric analysis (TGA); conditions: solid product
# Experimental: (§1) Thermal gravimetric analysis (TGA) was applied for measuring amounts of volatiles (residual solvents and water) in the solid. Water content was measured by Karl Fischer method (KF).
# [2] = Hygroscopicity after one month storage in closed containers; design: key: 1: non-hygroscopic, no visible change observed; 2: slightly hygroscopic, aggregation and lumping developed, loss of flowability; 3: hygroscopic, semi-solid material; 4: deliquescent, liquefied syrup-like product; conditions: after one month in closed containers at room temperature in atmospheric air (relative humidity ~50-80%)
# Experimental: The hygroscopicity was determined after one month in closed containers at room temperature in atmospheric air (relative humidity ˜50-80%)
# The observed samples could be divided into four groups in accordance to their hygroscopic properties:
# 1=non-hygroscopic, no visible change observed
# 2=slightly hygroscopic, aggregation and lumping developed, loss of flowability
# 3=hygroscopic, semi-solid material
# 4=deliquescent, liquefied syrup-like product
# [3] = Water content by Karl Fischer method (KF); conditions: solid product
# Experimental: as §1
compound,measurement,setting,value
"C#CCN[C@@H]1CCc2ccccc21 [Rasagiline base, R(+)-N-propargyl-l-aminoindan]","Water content, % By TGA",[1],< 0.1%
same,Hygroscopicity,[2],1
same,"Water content, % By KF",[3],0.1%
